Test results as given in paper PMC9954146, “Anti-Leukaemic Activity of Rilpivirine Is Mediated by Aurora A Kinase Inhibition” (Cancers, 2023).
pKi: −log10 of the molar value. Where two headings read alike, the source gives them in different places.

Tests used:
[1] = system: HL-60 xenograft; experiment: In vivo anti-cancer efficacy, HL-60 xenograft; settings: 200 mg/kg oral gavage once daily for 15 days
Experimental: An in vivo anti-cancer efficacy study was performed as reported previously. Briefly, female nude BALB/c mice (6–8 weeks of age) were engrafted with HL-60 human leukaemic cells subcutaneously into the rear flanks. Before inoculation, HL-60 (5 × 10^6) cells were cultured, harvested, and re-suspended in a 1:1 mixture of serum-free media and Matrigel (BD Biosciences, NSW, Australia). Mice with 100–200 mm^3 tumour size were allocated randomly into the control or treatment group. Rilpivirine and vehicle (0.5% HPMC) were administered by oral gavage daily. Mice were checked daily for any clinical signs of toxicity, including weight loss. Tumour volume was measured every other day and was calculated as length × width × height. At the end of the study period, or if clinical endpoints were reached as determined by a clinical record sheet score of 4, body condition score of 1, weight loss of ≥15%, or tumour growth of ≥2000 mm^3, the mouse was euthanised. Data analysis was performed using GraphPad Prism software version 7.02 (La Jolla, CA, USA).

[2] = Tolerated dose in non-tumour-bearing mice; assay type: in vivo; settings: up to an oral dose of 300 mg/kg, once daily for seven days; non-tumour-bearing female BALB/c nude mice
Experimental: Animal experiments were performed as reported previously. All animal experiments were conducted following the institutional ethical principles of animal care and approved by the University of South Australia Animal Ethics Committee.

[3] = In vivo safety profile in HL-60 engrafted mice; parameters: species or system mouse; settings: 200 mg/kg orally, once daily for 14 days
Experimental: Female 6–7-week-old BALB/c nude mice with tumour volumes of 100–200 mm^3 were allocated to two groups (n = 3 per group) and treated with vehicle (0.5% HPMC in water) or rilpivirine (200 mg/kg) daily for 14 days. Upon 24 h post the final dose, mice were humanely killed, and blood, bone marrow, heart, kidney, intestine, liver, and stomach were collected for histopathological analysis. Blood was collected in citrate-treated tubes and a complete blood count was performed by Gribbles Veterinary Pathology (South Australia, Australia). Organs were collected in 10% neutral buffered formalin and stained with hematoxylin and eosin externally by the Hanson Histology Services (South Australia, Australia), while histopathologic analysis was performed by a board-certified pathologist.

[4] = system: NB4 cells; experiment: Cell cycle analysis (PI, flow cytometry); assay type: cell-based, human; settings: 20 μM, 24 h
Experimental: (§1) To determine the effect of rilpivirine on cell-cycle distribution a flow cytometry-based analysis was performed after staining the untreated and treated cells with propidium iodide (PI) solution [22]. Briefly, 6 × 10^4 cells/well were seeded in 3 mL of medium per well in 6-well plates. After overnight incubation at 37 °C in 5% CO2, the cells were incubated with the test compounds for specified time points. The medium-containing cells were then taken out from the wells and transferred to FACS tubes. Cells were then pelleted by centrifugation at 300 g for 5 min. Afterward, cells were fixed by using 70% (v/v) ice-cold ethanol for 15 min and then again pelleted by centrifugation (300 g for 5 min). Finally, the cells were incubated with 200 µL of PI staining solution (50 μg/mL PI, 0.1% sodium citrate, 0.1 mg/mL RNase A, and 0.1% Triton X-100) for 1.5 h at room temperature in the dark. After the incubation period, the cells were analysed using a CytoFLEX flow cytometer (Beckman Coulter Inc., Brea, CA, USA). CytExpert software version 2.1 was used for data analysis and graph preparation.

[5] = system: KG1 cells; experiment: Cell cycle analysis (PI, flow cytometry); assay type: cell-based, human; settings: 10 µM or 20 µM, 24 h
Experimental: as §1

[6] = system: K-562 cells; experiment: Cell cycle analysis (PI, flow cytometry); assay type: cell-based, human; settings: 20 μM, 24 h
Experimental: as §1

[7] = system: U-937 cells; experiment: Cell cycle analysis (PI, flow cytometry); assay type: cell-based, human; settings: 20 μM, 24 h
Experimental: as §1

[8] = system: HL-60 cells; experiment: Cell cycle analysis (PI, flow cytometry); assay type: cell-based, human; settings: for G2-M cells: 24 h
Experimental: as §1

[9] = system: leukaemia cell lines (HL-60, NB4, K-562, and U-937); experiment: Resazurin cell viability assay, four cell lines; assay type: cell-based; settings: Homo sapiens; after 24, 48, or 72 h of treatment; read-out: GI50 values, range over all cell lines
Experimental: Cell viability was determined by a resazurin-based assay as described previously. Briefly, 5 × 10^3 cells/well were seeded into 96-well plates (Corning Inc., Corning, NY, USA) in 180 µL of RPMI 1640 medium and incubated overnight at 37 °C with 5% CO2. Next day, cells were treated with rilpivirine after serially diluted (1:2 dilution for final concentrations ranging from 0.625 µM to 40 µM) or DMSO (0.1%) for specified time periods (24, 48, or 72 h). At the end of the treatment period, 20 µL of resazurin (0.1 mg/mL in PBS) was added per well and incubated for further 4 h. Fluorescence intensities were recorded at 570 nm (excitation)/585 nm (emission) using an EnVision® multilabel plate reader (PerkinElmer, MA, USA). Drug concentrations required for cell viability reduction by 50% (GI50) compared with untreated (DMSO vehicle-treated only) control were determined by a non-linear regression model using GraphPad Prism software version 7.02 (La Jolla, CA, USA).

[10] = molecular target: Aurora A; parameters: method as in PMID 36297298; settings: apparent Ki from IC50 and Km (ATP), cited from earlier work

Cc1cc(/C=C/C#N)cc(C)c1Nc1ccnc(Nc2ccc(C#N)cc2)n1 [rilpivirine, (E)-4-((4-((4-(2-cyanoethenyl)-2,6-dimethylphenyl)amino)pyrimidin-2-yl)amino)benzonitrile]
day from which reduction in tumour growth was statistically significant (p < 0.001) [1]: ≥ 11 days | signs of toxicity or weight loss during treatment [1]: did not cause any apparent signs of toxicity or weight loss | tumour growth compared with vehicle-treated group [1]: noticeable delay in tumour growth | body weight and clinical signs of toxicity [2]: did not cause any significant changes in body weight (i.e., >15%) or show overt clinical signs of toxicity | complete blood count (red blood cells, neutrophils, lymphocytes, platelets) [3]: did not show any noticeable effects | histopathology of major organs [3]: did not cause any tissue damage in major organs | G2-M cells [4]: 55.25% | cell-cycle arrest [5]: induced G2/M cell-cycle arrest | G2-M cells [6]: 46.23% | G2-M cells [7]: 36.61% | G2-M cells ([8]; 5 μM): 31.15% | G2-M cells ([8]; 10 µM): 40.70% | time of maximum accumulation in the G2/M phase ([8]; 10 µM, time course): 16 h | G2-M cells ([8]; 20 μM): 46.32% | GI50 [9]: 4.12 to 12.4 µM | pKi [10]: ~6.94 | pKi ([10]; listed as Rilpivirine): 6.92
